Legend:
Type in all cases: in vivo
[1] = system: Plasmopara viticola (vine); test: Foliar fungal disease control, Plasmopara viticola on vine; conditions: 100 ppm foliar spray plus root drench approx. 40 ppm a.i./dry soil, 1-2 days before inoculation
[2] = system: Maize (MZ); test: Plant growth regulating whole plant screen, maize; conditions: 4000 ppm (4 kg/ha) spray; for A = Apical damage / I = Interligular or internodal length reduction / R = Retardation: visual score after 2-6 weeks
Description: (§1) This Example illustrates the plant growth regulating properties of compounds 1, 2, 5 and 12-15 of Table I when tested on a whole plant screen against two species of plant. The plant species are identified in Table IV with the leaf stage at which they were sprayed.
(§2) A formulation of each chemical was applied at 4000 ppm (4 kg/ha in a 1000 1/ha field volume) using a tracksprayer and a SS8004E (Teejet) nozzle.
(§3) After spraying, the plants were grown in a glasshouse with 25° C. day/22° C. night temperatures. Supplementary lighting was supplied when necessary to provide an average photoperiod of 16 hours (14 hours minimum).
(§4) After 2-6 weeks in the glasshouse, depending on species and time of year, the plants were visually assessed for morphological characteristics against a control plant sprayed with a blank formulation.

[3] = system: Apple (AP); test: Plant growth regulating whole plant screen, apple; conditions: 4000 ppm (4 kg/ha) spray, visual score after 2-6 weeks
Description: as §1, §2, §3, §4

[4] = system: Venturia inaequalis (apple); test: Foliar fungal disease control, Venturia inaequalis on apple; conditions: 100 ppm foliar spray plus root drench approx. 40 ppm a.i./dry soil, 1-2 days before inoculation
[5] = system: Cercospora arachidicola (peanut); test: Foliar fungal disease control, Cercospora arachidicola on peanut; conditions: 100 ppm foliar spray plus root drench approx. 40 ppm a.i./dry soil, 1-2 days before inoculation
[6] = system: Erysiphe graminis hordei (barley); test: Foliar fungal disease control, Erysiphe graminis hordei on barley; conditions: 100 ppm foliar spray plus root drench approx. 40 ppm a.i./dry soil, inoculated 24 hours before treatment
[7] = system: Puccinia recondita (wheat); test: Foliar fungal disease control, Puccinia recondita on wheat; conditions: 100 ppm foliar spray plus root drench approx. 40 ppm a.i./dry soil, 1-2 days before inoculation
[8] = system: Pyricularia oryzae (rice); conditions: 100 ppm foliar spray plus root drench approx. 40 ppm a.i./dry soil, 1-2 days before inoculation

SMILES | disease control grading, PLASMOPARA VITICOLA (VINE) [1] | A = Apical damage [2] | I = Interligular or internodal length reduction [2] | R = Retardation [2] | G = Greening effect [3] | I = Interligular or internodal length reduction [3] | R = Retardation [3] | disease control grading, VENTURIA INAEQUALIS (APPLE) [4] | disease control grading, CERCOSPORA ARACHIDICOLA (PEANUT) [5] | disease control grading, ERYSIPHE GRAMINIS HORDEI (BARLEY) [6] | disease control grading, PUCCINIA RECONDITA (WHEAT) [7] | disease control grading, P[…] (RICE) [8] | P = Phytotoxicity ([2]; after 2-6 weeks)
CON=C(C(=O)OC)c1ccccc1/C=C/c1ccccc1 (single isomer, unassigned) [Compound 2, methyl O-methyl (2-(E)-styrylphenyl)oximino-acetate] | 4 | 2 (31-60%) | 2 (31-60%) | 2 (31-60%) | 1 (10-30%) | 1 (10-30%) | 2 (31-60%) | 4 | 0 (60-100% of disease on untreated plants) | 0 (60-100% of disease on untreated plants) | 2 (6-25% of disease on untreated plants) | 0 (60-100% of disease on untreated plants) | 
CO/N=C(/C(=O)OC)c1ccccc1Oc1ccccc1 [Compound 6, methyl O-methyl(2-phenoxyphenyl)oximino-acetate] | 4 |  |  |  |  |  |  | 4 | 3 (trace - 5% of disease on untreated plants) | 4 | 4 | 3 (trace - 5% of disease on untreated plants) | 
CON=C(C(=O)OC)c1ccccc1/C=C/c1ccco1 (single isomer, unassigned) [Compound 3] | 0 (60-100% of disease on untreated plants) |  |  |  |  |  |  | 4 | 0 (60-100% of disease on untreated plants) | 0 (60-100% of disease on untreated plants) | 0 (60-100% of disease on untreated plants) | 0 (60-100% of disease on untreated plants) | 
CON=C(C(=O)OC)c1cccc2c1oc1ccccc12 (single isomer, unassigned) [Compound 17] | 2 (6-25% of disease on untreated plants) |  |  |  |  |  |  | 1 (26-59% of disease on untreated plants) | 0 (60-100% of disease on untreated plants) | 0 (60-100% of disease on untreated plants) | 3 (trace - 5% of disease on untreated plants) | 0 (60-100% of disease on untreated plants) | 
CO/N=C(\C(=O)OC)c1ccccc1Oc1ccccc1 [Compound 5, methyl O-methyl(2-phenoxyphenyl)oximino-acetate] | 0 (60-100% of disease on untreated plants) | 3 (61-100%) | 3 (61-100%) | 3 (61-100%) |  |  |  | 3 (trace - 5% of disease on untreated plants) | 0 (60-100% of disease on untreated plants) | 3 (trace - 5% of disease on untreated plants) | 0 (60-100% of disease on untreated plants) | 1 (26-59% of disease on untreated plants) | 1 (less than 10%)
CON=C(C(=O)OC)c1ccccc1N(C)C(=O)c1cccs1 (single isomer, unassigned) [Compound 33] | 0 (60-100% of disease on untreated plants) |  |  |  |  |  |  | 4 | 0 (60-100% of disease on untreated plants) | 0 (60-100% of disease on untreated plants) | 0 (60-100% of disease on untreated plants) | 0 (60-100% of disease on untreated plants) | 
CON=C(C(=O)OC)c1cccc2c1oc1ccccc12 (single isomer, unassigned) [Compound 18] | 4 |  |  |  |  |  |  | 4 | 1 (26-59% of disease on untreated plants) | 0 (60-100% of disease on untreated plants) | 3 (trace - 5% of disease on untreated plants) | 1 (26-59% of disease on untreated plants) | 
CON=C(C(=O)OC)c1ccccc1NC(=O)c1ccco1 (single isomer, unassigned) [Compound 13] | 0 (60-100% of disease on untreated plants) |  | 1 (10-30%) | 2 (31-60%) | 1 (10-30%) | 1 (10-30%) | 2 (31-60%) |  | 2 (6-25% of disease on untreated plants) | 0 (60-100% of disease on untreated plants) | 0 (60-100% of disease on untreated plants) | 0 (60-100% of disease on untreated plants) | 

From patent US4999042A, “Phenyl oximino-acetate fungicides” (Imperial Chemical Industries PLC, priority 1986, dated 1991)
